Data published in the supplement of paper PMC4862054.

Legend:
Assay in all cases: normalised viability (% of control), CellTiter-Blue; higher = more viable cells (about 100 = DMSO control)
Conditions in all cases: incubation time: 72 h
CAL-148 [1] = tested on: CAL-148
Summary of the method: (§1)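 Seeded at 20 µl suspension per well onto compound-loaded 384-well plates, breast cancer cell lines were incubated 72 h. CellTiter-Blue fluorescence at 560/590 nm was then read, with each plate normalised to vehicle (100) and a positive kill control (0). Normalised viability is reported at a single listed concentration of the series.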

CAL-120 [2] = tested on: CAL-120
Summary of the method: as §1

DU-4475 = tested on: DU-4475
Procedure: (§2)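 DSRT, CellTiter-Blue viability, 72 h incubation. Signal is normalised to DMSO and benzethonium chloride controls. Value is the normalised response at dose 3.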

MDA-MB-436 = tested on: MDA-MB-436
Procedure: as §2

MDA-MB-468 = tested on: MDA-MB-468
Procedure: as §2

HDQ-P1 = tested on: HDQ-P1
Procedure: as §2

Hs578T = tested on: Hs578T
Procedure: as §2

MFM-223 = tested on: MFM-223
Procedure: as §2

MDA-MB-231 = tested on: MDA-MB-231
Procedure: as §2

CAL-148 [3] = tested on: CAL-148; remark: listed apart in the source
Procedure: as §2

CAL-51 = tested on: CAL-51
Procedure: as §2

MDA-MB-453 = tested on: MDA-MB-453
Procedure: as §2

HCC1143 = tested on: HCC1143
Procedure: as §2

BT-474 = tested on: BT-474
Procedure: as §2

BT-549 = tested on: BT-549
Procedure: as §2

HCC1937 = tested on: HCC1937
Procedure: as §2

CAL-85-1 = tested on: CAL-85-1
Procedure: as §2

HCC1599 = tested on: HCC1599
Procedure: as §2

SK-BR-3 = tested on: SK-BR-3
Procedure: as §2

CAL-120 [4] = tested on: CAL-120; remark: listed apart in the source
Procedure: as §2

Nc1nc(Cl)nc2c1ncn2[C@H]1C[C@H](O)[C@@H](CO)O1 [Cladribine]
Conditions | normalised viability [%]
BT-474, 10 nM | 118
BT-549, 10 nM | 92
CAL-51, 1 nM | 114
CAL-85-1, 1 nM | 107
CAL-120 [2], 1 nM | 87.2
CAL-120 [2], 100 nM | 79.7
CAL-120 [2], 1000 nM | 48.1
CAL-120 [4], 10 nM | 97.4
CAL-148 [1], 0.3 nM | 91.9
CAL-148 [1], 3 nM | 109
CAL-148 [1], 10 nM | 93
CAL-148 [3], 1 nM | 97.4
DU-4475, 1 nM | 108
HCC1143, 10 nM | 85.5
HCC1599, 10 nM | 105
HCC1937, 10 nM | 84.8
HDQ-P1, 1 nM | 120
Hs578T, 10 nM | 98.4
MDA-MB-231, 10 nM | 83
MDA-MB-436, 10 nM | 96.9
MDA-MB-453, 1 nM | 112
MDA-MB-468, 10 nM | 104
MFM-223, 10 nM | 85
SK-BR-3, 10 nM | 95

Nc1ccn([C@@H]2O[C@H](CO)[C@@H](O)[C@@H]2O)c(=O)n1 [Cytarabine]
Conditions | normalised viability [%]
BT-474, 100 nM | 101
BT-549, 100 nM | 67.9
CAL-51, 10 nM | 94.4
CAL-85-1, 10 nM | 110
CAL-120 [2], 10 nM | 95.6
CAL-120 [2], 1000 nM | 66.4
CAL-120 [2], 10000 nM | 56.9
CAL-120 [4], 100 nM | 82.4
CAL-148 [1], 3 nM | 95.9
CAL-148 [1], 30 nM | 68.9
CAL-148 [1], 100 nM | 47.9
CAL-148 [3], 10 nM | 86.6
DU-4475, 10 nM | 137
HCC1143, 100 nM | 86
HCC1599, 100 nM | 110
HCC1937, 100 nM | 76.3
HDQ-P1, 10 nM | 94.6
Hs578T, 100 nM | 65.1
MDA-MB-231, 100 nM | 86.3
MDA-MB-436, 100 nM | 91.9
MDA-MB-453, 10 nM | 109
MDA-MB-468, 100 nM | 95.1
MFM-223, 100 nM | 103
SK-BR-3, 100 nM | 81.2

Cc1c2oc3c(C)ccc(C(=O)N[C@@H]4C(=O)N[C@H](C(C)C)C(=O)N5CCC[C@H]5C(=O)N(C)CC(=O)N(C)[C@@H](C(C)C)C(=O)O[C@@H]4C)c3nc-2c(C(=O)N[C@@H]2C(=O)N[C@H](C(C)C)C(=O)N3CCC[C@H]3C(=O)N(C)CC(=O)N(C)[C@@H](C(C)C)C(=O)O[C@@H]2C)c(N)c1=O [Dactinomycin]
Conditions | normalised viability [%]
BT-474, 10 nM | 73.5
BT-549, 10 nM | 17.8
CAL-51, 1 nM | 77
CAL-85-1, 1 nM | 50.3
CAL-120 [2], 1 nM | 51
CAL-120 [2], 100 nM | 11.9
CAL-120 [2], 1000 nM | 9.97
CAL-120 [4], 10 nM | 31.4
CAL-148 [1], 0.3 nM | 71.8
CAL-148 [1], 3 nM | 32.4
CAL-148 [1], 10 nM | 4.61
CAL-148 [3], 1 nM | 46.5
DU-4475, 1 nM | 32.1
HCC1143, 10 nM | 46.5
HCC1599, 10 nM | 49.3
HCC1937, 10 nM | 41.3
HDQ-P1, 1 nM | 59.2
Hs578T, 10 nM | 23.3
MDA-MB-231, 10 nM | 27.3
MDA-MB-436, 10 nM | 46.4
MDA-MB-453, 1 nM | 49.7
MDA-MB-468, 10 nM | 18.9
MFM-223, 10 nM | 67.5
SK-BR-3, 10 nM | 24.6

COc1cccc2c1C(=O)c1c(O)c3c(c(O)c1C2=O)C[C@@](O)(C(=O)CO)C[C@@H]3O[C@H]1C[C@H](N)[C@H](O)[C@H](C)O1 [Doxorubicin]
Conditions | normalised viability [%]
BT-474, 10 nM | 95.5
BT-549, 10 nM | 98.9
CAL-51, 1 nM | 105
CAL-85-1, 1 nM | 95.7
CAL-120 [2], 1 nM | 96.2
CAL-120 [2], 100 nM | 52.6
CAL-120 [2], 1000 nM | 6.93
CAL-120 [4], 10 nM | 84.6
CAL-148 [1], 0.3 nM | 86.5
CAL-148 [1], 3 nM | 93
CAL-148 [1], 10 nM | 73.6
CAL-148 [3], 1 nM | 96.6
DU-4475, 1 nM | 103
HCC1143, 10 nM | 83.4
HCC1599, 10 nM | 102
HCC1937, 10 nM | 98.9
HDQ-P1, 1 nM | 108
Hs578T, 10 nM | 99.5
MDA-MB-231, 10 nM | 78.6
MDA-MB-436, 10 nM | 92.4
MDA-MB-453, 1 nM | 99.1
MDA-MB-468, 10 nM | 98.8
MFM-223, 10 nM | 89.4
SK-BR-3, 10 nM | 75.6

Cc1ccc(F)c(NC(=O)Nc2ccc(-c3cccc4[nH]nc(N)c34)cc2)c1 [Linifanib]
Conditions | normalised viability [%]
BT-474, 10 nM | 111
BT-549, 10 nM | 94.8
CAL-51, 1 nM | 102
CAL-85-1, 1 nM | 99
CAL-120 [2], 1 nM | 90.8
CAL-120 [2], 100 nM | 91.2
CAL-120 [2], 1000 nM | 109
CAL-120 [4], 10 nM | 95.2
CAL-148 [1], 0.3 nM | 93
CAL-148 [1], 3 nM | 96.3
CAL-148 [1], 10 nM | 94.4
CAL-148 [3], 1 nM | 104
DU-4475, 1 nM | 96.5
HCC1143, 10 nM | 89.4
HCC1599, 10 nM | 108
HCC1937, 10 nM | 109
HDQ-P1, 1 nM | 108
Hs578T, 10 nM | 82.9
MDA-MB-231, 10 nM | 103
MDA-MB-436, 10 nM | 124
MDA-MB-453, 1 nM | 106
MDA-MB-468, 10 nM | 123
MFM-223, 10 nM | 102
SK-BR-3, 10 nM | 119

COc1cc(Nc2ncc3c(n2)-c2ccc(Cl)cc2C(c2c(F)cccc2OC)=NC3)ccc1C(=O)O [MLN8237]
Conditions | normalised viability [%]
BT-474, 100 nM | 72.6
BT-549, 100 nM | 62.2
CAL-51, 10 nM | 98.2
CAL-85-1, 10 nM | 95
CAL-120 [2], 10 nM | 104
CAL-120 [2], 1000 nM | 59.8
CAL-120 [2], 10000 nM | 33.6
CAL-120 [4], 100 nM | 68.2
CAL-148 [1], 3 nM | 86.7
CAL-148 [1], 30 nM | 89.9
CAL-148 [1], 100 nM | 78.1
CAL-148 [3], 10 nM | 94.7
DU-4475, 10 nM | 102
HCC1143, 100 nM | 71.2
HCC1599, 100 nM | 97.7
HCC1937, 100 nM | 65.7
HDQ-P1, 10 nM | 111
Hs578T, 100 nM | 51.3
MDA-MB-231, 100 nM | 75.5
MDA-MB-436, 100 nM | 91.5
MDA-MB-453, 10 nM | 84.3
MDA-MB-468, 100 nM | 62.6
MFM-223, 100 nM | 77.7
SK-BR-3, 100 nM | 53

S=c1[nH]cnc2nc[nH]c12 [Mercaptopurine]
Conditions | normalised viability [%]
BT-474, 100 nM | 111
BT-549, 100 nM | 106
CAL-51, 10 nM | 108
CAL-85-1, 10 nM | 93.9
CAL-120 [2], 10 nM | 88.1
CAL-120 [2], 1000 nM | 83.7
CAL-120 [2], 10000 nM | 47.3
CAL-120 [4], 100 nM | 90.2
CAL-148 [1], 3 nM | 99.5
CAL-148 [1], 30 nM | 98.7
CAL-148 [1], 100 nM | 92.8
CAL-148 [3], 10 nM | 94.1
DU-4475, 10 nM | 130
HCC1143, 100 nM | 92
HCC1599, 100 nM | 93.5
HCC1937, 100 nM | 104
HDQ-P1, 10 nM | 106
Hs578T, 100 nM | 113
MDA-MB-231, 100 nM | 99.8
MDA-MB-436, 100 nM | 121
MDA-MB-453, 10 nM | 113
MDA-MB-468, 100 nM | 108
MFM-223, 100 nM | 93.6
SK-BR-3, 100 nM | 94

Clc1ccc(C(c2ccccc2Cl)C(Cl)Cl)cc1 (configuration not stated) [Mitotane]
Conditions | normalised viability [%]
BT-474, 100 nM | 127
BT-549, 100 nM | 98.5
CAL-51, 10 nM | 112
CAL-85-1, 10 nM | 99.9
CAL-120 [2], 10 nM | 80.8
CAL-120 [2], 1000 nM | 87.8
CAL-120 [2], 10000 nM | 86
CAL-120 [4], 100 nM | 86.3
CAL-148 [1], 3 nM | 89.2
CAL-148 [1], 30 nM | 94.2
CAL-148 [1], 100 nM | 95.7
CAL-148 [3], 10 nM | 93.1
DU-4475, 10 nM | 98.6
HCC1143, 100 nM | 89.6
HCC1599, 100 nM | 107
HCC1937, 100 nM | 95.6
HDQ-P1, 10 nM | 99.1
Hs578T, 100 nM | 99.8
MDA-MB-231, 100 nM | 91.7
MDA-MB-436, 100 nM | 105
MDA-MB-453, 10 nM | 102
MDA-MB-468, 100 nM | 98.8
MFM-223, 100 nM | 93.9
SK-BR-3, 100 nM | 112
